Assay results taken from patent publication US5849915A (priority 1996, dated 1998).

How the values were obtained:
[1] = parameters: species or system mice; conditions: mouse, in vivo, sc
[2] = parameters: species or system mice; conditions: mouse, in vivo
[3] = parameters: species or system mice; conditions: mouse, in vivo, sc, 30 min

Compound	ED50 (95% confidence limits) in the acetic acid writhing test [1] [mg/kg]	anti-Mor effect (in words) [2]	AD50 (95% confidence limits), dosage required to inhibit Mor analgesia by 50% ([2]; sc) [mg/kg]	ED50 (95% confidence limits) in the hot plate [3] [mg/kg]
CO[C@]12CC[C@@]3(C[C@@H]1[C@](C)(O)C(C)(C)C)[C@H]1Cc4ccc(O)c5c4[C@@]3(CCN1CC1CC1)[C@H]2O5 [Buprenorphine]	0.00693	antagonised Mor analgesia	1.33	–
CN1CC[C@]23c4c5ccc(O)c4O[C@H]2[C@@H](O)C=C[C@H]3[C@H]1C5 [Morphine]	–	–	–	5.81
